In US12139492B2 (Endotarget Inc., priority 2021, dated 2024):
Like-named read-outs stand apart in the source and are kept apart here.

Tests used:
[1] = test system: Mino cells; test: Antiproliferative effect, MTS cell viability assay, Mino cells; type: cell-based; details: Mino mantle cell lymphoma cells, read-out: IC50 (anti-proliferation) Mino cells
Outline: (§1)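 Readout was MTS-derived formazan absorbance (490 nm) reflecting metabolically active cells. Treatment lasted 72 h over a 0–10 μM range (0.001, 0.01, 0.1, 1, 10 μM) in JeKo-1 and Mino B-cell malignancy cells.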

[2] = test system: JeKo-1 cells; test: Antiproliferative effect, MTS cell viability assay, JeKo-1 cells; type: cell-based; details: JeKo-1 mantle cell lymphoma cells, read-out: IC50 (anti-proliferation) JeKO-1 cells
Outline: as §1

[3] = target: T1, BTK (Homo sapiens, UniProt Q06187); test: Degradation of BTK protein in Mino cells (Western blot; DC50, Dmax); details: Mino mantle cell lymphoma cells, various concentrations, 24 hours
Experimental: (§2) Namalwa, JeKo-1, or Mino cells were plated in 24-well plates at a density of 10^5 cells/well. Media containing various drug concentrations were added on the day following plating (day 0) and allowed to incubate for 24 hours for Western blot. Media with the tested compound was changed every other day. […] Media were removed and dishes were washed with 1×DPBS. Lysates were made by adding 150 μL of complete lysis solution and scraping cells into a 1.5 mL microcentrifuge tube. Lysates were placed on a rotisserie at 4° C. for 30 min and then spun at 4° C. at 12000 rcf for 10 min. Supernatants were assayed for protein content, snap-frozen, and stored a −80° C. if not run immediately. Then 50 μg of protein was subjected to Western blot protocol. […] They were then imaged on a LICOR infrared scanner.

[4] = target: T1, BTK; test: Degradation of BTK protein in JeKo-1 cells (Western blot; DC50, Dmax); details: JeKo-1 mantle cell lymphoma cells, various concentrations, 24 hours
Experimental: as §2

[5] = target: T1, BTK; test: Degradation of BTK protein in Namalwa cells (Western blot; DC50, Dmax); details: for DC50: cell line not given; for degradation of BTK protein / degradation of BTK protein at 10^−6 M: Namalwa B lymphocyte cells, Western blot; for degradation of BTK protein: various concentrations, 24 hours
[6] = target: T1, BTK; test: BTK degradation, DC50 and Dmax of Table 1 (cell line not given); type: cell-based; parameters: endogenous in cells; details: for DC50: concentration giving 50% reduction of BTK expression level
[7] = read-out: DC50 (BTK degradation), concentration giving 50% reduction of BTK expression level
[8] = read-out: Dmax (BTK degradation)

T1 sequence (Q06187 whole entry): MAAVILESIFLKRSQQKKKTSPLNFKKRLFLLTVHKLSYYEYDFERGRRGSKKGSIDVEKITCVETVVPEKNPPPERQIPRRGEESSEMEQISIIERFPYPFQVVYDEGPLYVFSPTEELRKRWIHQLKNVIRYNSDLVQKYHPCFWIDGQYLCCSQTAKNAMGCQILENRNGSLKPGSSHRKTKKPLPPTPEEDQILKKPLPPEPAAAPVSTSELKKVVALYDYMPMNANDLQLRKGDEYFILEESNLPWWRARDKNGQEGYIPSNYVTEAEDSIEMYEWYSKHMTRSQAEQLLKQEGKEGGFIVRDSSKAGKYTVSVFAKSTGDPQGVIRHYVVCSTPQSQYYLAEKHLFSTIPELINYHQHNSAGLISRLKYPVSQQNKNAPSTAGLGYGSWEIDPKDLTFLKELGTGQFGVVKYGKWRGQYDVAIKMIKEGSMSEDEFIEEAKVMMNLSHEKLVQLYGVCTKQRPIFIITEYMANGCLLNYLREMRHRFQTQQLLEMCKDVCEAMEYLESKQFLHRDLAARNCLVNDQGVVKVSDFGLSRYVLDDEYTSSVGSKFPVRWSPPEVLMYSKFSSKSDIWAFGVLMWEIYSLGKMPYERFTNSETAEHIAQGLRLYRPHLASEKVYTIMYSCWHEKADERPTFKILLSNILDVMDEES

Row | Compound | degradation of BTK protein [3] | degradation of BTK protein [4] | Dmax [5] [%] | DC50 ([5]; BTK degradation) [nM] | degradation of BTK protein [5] | DC50 [5, 7] [nM] | Dmax [5, 8] [%] | Dmax [6] [%] | DC50 [6] [nM] | degradation of BTK protein at 10^−6 M [5] | IC50 ([1]; Homo sapiens, MINO) [nM] | IC50 ([2]; Homo sapiens) [nM] | IC50 [1] [nM] | IC50 [2] [nM] | IC50 ([1]; Homo sapiens) [nM]
1 | Nc1ncnc2c1c(-c1ccc(Oc3ccccc3)cc1)nn2C1CCN(C(=O)N2CC(N3CCN(c4ccc5c(c4)CN(C4CCC(=O)NC4=O)C5=O)CC3)C2)CC1 (centres unmarked) [Compound 478, 3-(5-(4-(1-(4-(4-amino-3-(4-phenoxyphenyl)-1H-pyrazolo[3,4-d]pyrimidin-1-yl)piperidine-1-carbonyl)azetidin-3-yl)piperazin-1-yl)-1-oxoisoindolin-2-yl)piperidine-2,6-dione] | dose-dependent degradation |  |  |  | dose-dependent degradation | < 10 | > 90 |  |  |  | < 1000 | < 1000 |  |  | 
2 | Nc1ncnc2c1c(-c1ccc(Oc3ccccc3)cc1)nn2C1CCN(C(=O)N2CC(N3CCN(c4ccc5c(c4)CN([C@H]4CCC(=O)NC4=O)C5=O)CC3)C2)CC1 [Compound 484, (S)-3-(5-(4-(1-(4-(4-amino-3-(4-phenoxyphenyl)-1H-pyrazolo[3,4-d]pyrimidin-1-yl)piperidine-1-carbonyl)azetidin-3-yl)piperazin-1-yl)-1-oxoisoindolin-2-yl)piperidine-2,6-dione] | dose-dependent degradation |  |  |  |  | < 10 | > 90 |  |  |  | < 1000 | < 1000 |  |  | 
3 | Nc1ncnc2c1c(-c1ccc(Oc3ccccc3)cc1)nn2C1CCN(CCOCCOCCN2CCC(c3ccc4c(c3)CN(C3CCC(=O)NC3=O)C4=O)CC2)CC1 (centres unmarked) [Compound 419, 3-(5-(1-(2-(2-(2-(4-(4-amino-3-(4-phenoxyphenyl)-1H-pyrazolo[3,4-d]pyrimidin-1-yl)piperidin-1-yl)ethoxy)ethoxy)ethyl)piperidin-4-yl)-1-oxoisoindolin-2-yl)piperidine-2,6-dione] | dose-dependent degradation | dose-dependent degradation |  |  | dose-dependent degradation | < 10 | > 90 |  |  |  |  |  | 1000 to 10000 | 1000 to 10000 | 
4 | Nc1ncnc2c1c(-c1ccc(Oc3ccccc3)cc1)nn2C1CCN(CC2CCN(C(=O)N3CCN(c4ccc5c(c4)CN(C4CCC(=O)NC4=O)C5=O)CC3)CC2)CC1 (centres unmarked) [Compound 36, 3-(5-(4-(4-((4-(4-amino-3-(4-phenoxyphenyl)-1H-pyrazolo(3,4-d)pyrimidin-1-yl)piperidin-1-yl)methyl)piperidine-1-carbonyl)piperazin-1-yl)-1-oxoisoindolin-2-yl)piperidine-2,6-dione] |  | dose-dependent degradation |  |  | dose-dependent degradation |  |  | > 90 | < 10 |  |  | < 1000 |  |  | < 1000
5 | Nc1ncnc2c1c(-c1ccc(Oc3ccccc3)cc1)nn2[C@@H]1CCCN(CC2CCN(C(=O)N3CCC(CCN4CCN(c5ccc6c(c5)C(=O)N(C5CCC(=O)NC5=O)C6=O)CC4)CC3)CC2)C1 (stereo partly drawn) [Compound 33, 5-(4-(2-(1-(4-(((R)-3-(4-amino-3-(4-phenoxyphenyl)-1H-pyrazolo(3,4-d)pyrimidin-1-yl)piperidin-1-yl)methyl)piperidine-1-carbonyl)piperidin-4-yl)ethyl)piperazin-1-yl)-2-(2,6-dioxopiperidin-3-yl)isoindoline-1,3-dione] |  |  |  |  | dose-dependent degradation |  |  | > 90 | > 50 | degradation | 1000 to 10000 | 1000 to 10000 |  |  | 

Second part, led by results:

Row | degradation of BTK protein [3] | degradation of BTK protein [4] | Dmax [5] [%] | DC50 ([5]; BTK degradation) [nM] | degradation of BTK protein [5] | DC50 [5, 7] [nM] | Dmax [5, 8] [%] | Dmax [6] [%] | DC50 [6] [nM] | degradation of BTK protein at 10^−6 M [5] | Compound | IC50 ([1]; Homo sapiens, MINO) [nM] | IC50 ([2]; Homo sapiens) [nM] | IC50 [1] [nM] | IC50 [2] [nM] | IC50 ([1]; Homo sapiens) [nM]
6 | dose-dependent degradation | dose-dependent degradation | > 90 | < 10 | dose-dependent degradation |  |  |  |  |  | Nc1ncnc2c1c(-c1ccc(Oc3ccccc3)cc1)nn2C1CCN(C2CCN(CC3CCN(c4ccc5c(c4)C(=O)N(C4CCC(=O)NC4=O)C5=O)CC3)CC2)CC1 (centres unmarked) [Compound 213, 5-(4-((4-(4-amino-3-(4-phenoxyphenyl)-1H-pyrazolo(3,4-d)pyrimidin-1-yl)-(1,4′-bipiperidin)-1′-yl)methyl)piperidin-1-yl)-2-(2,6-dioxopiperidin-3-yl)isoindoline-1,3-dione] | < 1000 | < 1000 |  |  | 
7 |  | dose-dependent degradation |  |  | dose-dependent degradation | 10 to 50 | > 90 |  |  |  | Nc1ncnc2c1c(-c1ccc(Oc3ccccc3)cc1)nn2C1CCN(C2CCN(CC3CN(c4ccc5c(c4)C(=O)N(C4CCC(=O)NC4=O)C5=O)C3)C2)CC1 (centres unmarked) [Compound 425, 5-(3-((3-(4-(4-amino-3-(4-phenoxyphenyl)-1H-pyrazolo(3,4-d)pyrimidin-1-yl)piperidin-1-yl)pyrrolidin-1-yl)methyl)azetidin-1-yl)-2-(2,6-dioxopiperidin-3-yl)isoindoline-1,3-dione] | 1000 to 10000 | 1000 to 10000 |  |  | 
8 | dose-dependent degradation | dose-dependent degradation |  |  | dose-dependent degradation | < 10 | > 90 |  |  |  | Nc1ncnc2c1c(-c1ccc(Oc3ccccc3)cc1)nn2C1CCN(CC2CCN(/C=C/C(=O)CN3CCN(c4ccc5c(c4)CN(C4CCC(=O)NC4=O)C5=O)CC3)CC2)CC1 (centres unmarked) [Compound 420, (E)-3-(5-(4-(4-(4-((4-(4-amino-3-(4-phenoxyphenyl)-1H-pyrazolo[3,4-d]pyrimidin-1-yl)piperidin-1-yl)methyl)piperidin-1-yl)-2-oxobut-3-en-1-yl)piperazin-1-yl)-1-oxoisoindolin-2-yl)piperidine-2,6-dione] | 1000 to 10000 | 1000 to 10000 |  |  | 
9 |  | dose-dependent degradation |  |  | dose-dependent degradation |  |  | > 90 | < 10 |  | Nc1ncnc2c1c(-c1ccc(Oc3ccccc3)cc1)nn2C1CCN(C(=O)N2CCC(CN3CCN(c4ccc5c(c4)CN(C4CCC(=O)NC4=O)C5=O)CC3)CC2)CC1 (centres unmarked) [Compound 86, 3-(5-(4-((1-(4-(4-amino-3-(4-phenoxyphenyl)-1H-pyrazolo(3,4-d)pyrimidin-1-yl)piperidine-1-carbonyl)piperidin-4-yl)methyl)piperazin-1-yl)-1-oxoisoindolin-2-yl)piperidine-2,6-dione] | < 1000 | < 1000 |  |  | 
10 | dose-dependent degradation | dose-dependent degradation |  |  | dose-dependent degradation | < 10 | > 90 |  |  |  | Nc1ncnc2c1c(-c1ccc(Oc3ccccc3)cc1)nn2C1CCN(CC2CN(CC3CCN(c4ccc5c(c4)C(=O)N(C4CCC(=O)NC4=O)C5=O)CC3)C2)CC1 (centres unmarked) [Compound 439, 5-(4-((3-((4-(4-amino-3-(4-phenoxyphenyl)-1H-pyrazolo(3,4-d)pyrimidin-1-yl)piperidin-1-yl)methyl)azetidin-1-yl)methyl)piperidin-1-yl)-2-(2,6-dioxopiperidin-3-yl)isoindoline-1,3-dione] | < 1000 | 1000 to 10000 |  |  | 
11 | dose-dependent degradation |  |  |  |  | < 10 | > 90 |  |  |  | Nc1ncnc2c1c(-c1ccc(Oc3ccccc3)cc1)nn2C1CCN(C(=O)N2CC(N3CCN(c4ccc5c(c4)C(=O)N(C4CCC(=O)NC4=O)C5=O)CC3)C2)CC1 (centres unmarked) [Compound 477, 5-(4-(1-(4-(4-amino-3-(4-phenoxyphenyl)-1H-pyrazolo[3,4-d]pyrimidin-1-yl)piperidine-1-carbonyl)azetidin-3-yl)piperazin-1-yl)-2-(2,6-dioxopiperidin-3-yl)isoindoline-1,3-dione] | < 1000 | < 1000 |  |  | 
12 | dose-dependent degradation |  |  |  | dose-dependent degradation | < 10 | > 90 |  |  |  | Nc1ncnc2c1c(-c1ccc(Oc3ccccc3)cc1)nn2C1CCN(C2CCN(CC3CCN(c4ccc5c(c4)C(=O)N(C4CCC(=O)NC4=O)C5=O)CC3)C2)CC1 (centres unmarked) [Compound 449, 5-(4-((3-(4-(4-amino-3-(4-phenoxyphenyl)-1H-pyrazolo(3,4-d)pyrimidin-1-yl)piperidin-1-yl)pyrrolidin-1-yl)methyl)piperidin-1-yl)-2-(2,6-dioxopiperidin-3-yl)isoindoline-1,3-dione] | < 1000 | < 1000 |  |  | 
13 |  |  |  |  | dose-dependent degradation |  |  | > 90 | 10 to 50 | degradation | Nc1ncnc2c1c(-c1ccc(Oc3ccccc3)cc1)nn2[C@@H]1CCCN(C2CCN(C(=O)N3CCC(CN4CCN(c5ccc6c(c5)C(=O)N(C5CCC(=O)NC5=O)C6=O)CC4)CC3)CC2)C1 (stereo partly drawn) [Compound 169, 5-(4-((1-((R)-3-(4-amino-3-(4-phenoxyphenyl)-1H-pyrazolo(3,4-d)pyrimidin-1-yl)-(1,4′-bipiperidine)-1′-carbonyl)piperidin-4-yl)methyl)piperazin-1-yl)-2-(2,6-dioxopiperidin-3-yl)isoindoline-1,3-dione] | 1000 to 10000 | < 1000 |  |  | 
